In assay [1] the test system is alcohol dehydrogenase from Vanilla planifolia embryo culture (vanillyl alcohol dehydrogenase, VAD). Nature of the assay: Substrate specificity of vanillyl alcohol dehydrogenase (VAD). The assay is classed as biochemical. Conditions: for Activity with the compound as substrate, NADH: cofactor NADH; for Activity with the compound as substrate, NADPH: cofactor NADPH. How it is done:
We have purified and characterized the activity of VAD that catalyze the reduction of vanillin to vanillyl alcohol. The enzyme was identified as an NADH or NADPH-dependent alcohol dehydrogenase. The purification protocol was as set forth below.
Crude enzyme extract: Tissue was homogenized in 0.05 M actetate-Na buffer pH 4.0 (in proportion, 1 g of the tissue and 5 ml of the buffer) in an ice bath, using Polytrone homogenizer, at 20,000 revolutions of the blade per min. The homogenate was centrifuged at 13000 g for 15 min at 4° C. and the supernatant served as the crude enzyme source.
Ammonium sulfate fractionation and molecular sieving: Crude enzyme extract (100 ml) was supplied with ammonium sulfate in an ice bath up to 60% of saturation (44.4 g of Ammonium sulphate per 100 ml). The precipitate was centrifuged and discarded. The supernatant was supplied with ammonium sulfate up to 90% of saturation (total 64.6 g per 100 ml of crude extract). The precipitate was collected (10 min centrifugation at 10,000 g), dissolved in 7 ml of extraction buffer and subjected to molecular sieving at Sephacryl S-300 High Load Column (LKB Pharmacia) 2.6×60 cm, in 0.1 M pH 4.0 acetate-Na buffer. The flow rate was adjusted to 1 ml/min and 5 ml fractions were collected. The protein elution profile was monitored at 280 nm. Five fractions (of a total of 50) containing dehydrogenase activity (130–155 ml of the column eluate) were collected.
The column was developed with 0.5 M Tris/HCL buffer pH 7.4 in 0.0–1.0 M NaCl gradient (total gradient volume—70 ml) and 2.5 ml fractions were collected. Vanillyl alcohol dehydrogenase was released from the column between 0.3–0.4 M NaCl. Fractions containing VAD activity were dialysed overnight against 0.05 M caetate-Na buffer pH 4.0 and concentrated up to 50 times using Minicon concentrating filters (Amicon). […]

A further assay relates to Vanilla embryo culture. As to the kind of experiment: Feeding vanilla embryo culture with vanillin precursors, HPLC analysis of metabolites. The assay is classed as cell-based, Vanilla planifolia. An excerpt: We derived a scheme for the vanillin biosynthetic pathway by analysis of metabolites in cultured embryos and by experiments with feeding of precursors and intermediates. This scheme is shown in FIG. 1 and the experiments are described below.
(§1) Embryo cultures of Vanilla planifolia were established as described in Example 1. The procedures used to extract phenolics from the cultured embryo cells and to analyze the extracts by high pressure liquid chromatography (HPLC) were as described generally by Havkin-Frenkel et al., Plant Cell, Tissue and Organ Culture 45: 133–136 (1996).
(§2) In the extraction procedure, 3 ml of 0.05 M sodium acetate buffer, pH 5.5, was added to about 1 gram of fresh culture. Samples were placed in boiling water for three minutes, then chilled. The cells were next homogenized in a Polytron blender for 1 minute at medium speed. A β-glucosidase solution was added to the homogenized cells to give a final concentration of 0.2%. Each sample was then incubated at 37° C. for 5 hr. Next, 17 ml of 95% ethanol was added, after which incubation at 37° C. was continued for an additional 24 hrs. The extract was then filtered and the ethanol evaporated. The filtrate was extracted twice using ethyl acetate, then extracted twice with ethyl acetate acidified to pH 3 with HCl. The extracts were combined and the ethyl acetate evaporated. The residue was dissolved in 1 ml of acidified methanol and filtered with a 0.45 μm syringe filter for HPLC analysis.
Extractions of metabolites from culture medium was similar to the cell extraction protocol. Five ml of spent medium was incubated in a β-glucosidase solution at 37° C. for 24 hrs. The medium was then extracted with ethyl acetate and the organic portions combined and evaporated, as for the cell extracts.
(§3) Metabolite levels were measured with a Hewlett Packard 1090L or a Waters HPLC with a UV detector at 280 nm. The Waters HPLC was also equipped with a diode array detector to confirm the identities of the various intermediates, and the identities of the various intermediates were further confirmed by mass spectrometry. The column was a Supelco C-18 DB column of dimensions 250 mm×4.6 mm and a particle size of 5 μm. The mobile phase contained methanol and water, each of which was acidified with 1.25% acetic acid. The flow rate was 1 ml/min, with a solvent gradient as follows: […]
Results of selected experiments in which precursors or elicitors were added to vanilla cultures are set forth below. These experiments were performed in accordance with the procedures set forth in Examples 1–4.

The subject of assay [2] is p-hydroxybenzaldehyde synthase. As to the kind of experiment: Substrate specificity of p-hydroxybenzaldehyde synthase (chain shortening enzyme), crude enzyme. The class given is biochemical, Vanilla planifolia. Conditions: for Result: conversion of the compound as substrate to the expected chain-shortened product: crude enzyme, HPLC detection of product. How it is done: Sterile plant material (2 g) 2–3 weeks after subculture, was homogenized in a cooled Potter glass homogenizer with 4 ml of 0.1 M HEPES buffer, pH 8.0, containing 10 mM DTT. The homogenate was next centrifuged at 4° C. at 15.000× g for 15 min. Resultant supernatant (4 ml) was filtered through Sephadex G-25 column (void volume 3–4 ml.) Equilibrated with Tris/HCL buffer pH7, containing 10 mM DTT. The column was washed with the same buffer and 2 ml fraction following the void volume was collected. This fraction was used as the crude enzyme source.
The p-HO-aldehyde synthase activity was determined in the following mixture:
crude enzyme extract: 10 μl
(substrate=1.8 mM p-coumarate in 0.1 M Tris/HCl, pH 8.0 with 10 mM DTT)
The mixture was incubated for 10–60 min (for longer incubation times, the activity was not proportional with time) at 35° C. and next, the reaction stopped by addition of 200 μl of acidified methanol (10% acetic acid in methanol). The slurry was passed through 0.45 μm filter and the filtrate (50 μl) injected into HPLC Bio-sil 18 HL 90-5 column (Reversed phase, 250 mm×4.6 mm). […] The eluate was monitored at 280 nm and retention time of the reaction product was compared to retention time of the standard compounds (benzaldehyde, p-HO-benzaldehyde, vanillin, protocatechuic aldehyde, p-coumaric acid, caffeic acid, ferulic acid, coniferyl aldehyde). The results were quantified using LKB Bromma 2221 Integrator.
As a potential substrates for chain shortening enzyme the following compounds were tested: […]

Assay [3] relates to Vanilla planifolia Embryo Culture. As to the kind of experiment: Malic acid elicitation of embryo culture, HPLC analysis of intermediary metabolites. The class given is cell-based. How it is done: as §1, §2, §3
Malic acid in concentrations of 0.1 to 3% was applied as a disodium salt to the growing medium. The culture was maintained for 1 to 15 days, then was extracted as described in Example 2.
Cultures were grown in medium containing 3% malic acid by weight, for 7 days.

The mark [4] stands for this setting: 3% malic acid by weight in medium, 7 days.

For the compound `CCOc1cc(C=O)ccc1O` [4-hydroxy-3-ethoxybenzaldehyde], in assay [1], the “Activity with the compound as substrate, NADH” value (“Activity … NADH” below) is recorded as 0.42 nmoles · gfwt^−1 · min^−1.
`CCOc1cc(C=O)ccc1OC` [4-methoxy-3-ethoxybenzaldehyde]: in assay [1], the “Activity … NADH” value is 0.00 nmoles · gfwt^−1 · min^−1.
In the case of `COc1ccc(C=O)cc1O` [4methoxy-3-hydroxybenzaldehyde], in assay [1], the “Activity … NADH” value was 0.00 nmoles · gfwt^−1 · min^−1 and the “Activity with the compound as substrate, NADPH” value (“Activity … NADPH” below) stood at 0.00 nmoles · gfwt^−1 · min^−1.
As for `CC=O` [Acetaldehyde], in assay [1], the “substrate preference of VAD” value is given as “lower” and the “Activity … NADH” value was determined as 0.26 nmoles · gfwt^−1 · min^−1.
On to `O=Cc1ccc(O)cc1` [BA, p-hydroxybenzaldehyde], for which, in the assay on Vanilla embryo culture (precursor fed at 1 mM), the “CA (p-coumaric acid) content of culture” value was 125 mg/100 g dry wt, the “HBA (p-hydroxybenzyl alcohol) content of culture” value came out at 10305 mg/100 g dry wt, the “PRO-ALD (3,4-dihydroxybenzaldehyde) content of culture” value (“PRO-ALD” below) was 5.8 mg/100 g dry wt and the “VN (vanillin) content of culture” value was 0.015 mg/100 g dry wt. In addition, the “VN ALC (vanillyl alcohol) content of culture” value (“VN ALC” for short) with Vanilla embryo culture (precursor fed at 1 mM) is given as 12.3 mg/100 g dry wt. In assay [1], the “Activity … NADH” value is 0.32 nmoles · gfwt^−1 · min^−1 and the “Activity … NADPH” value amounted to 0.14 nmoles · gfwt^−1 · min^−1.
As for `O=Cc1ccccc1` [Benzaldehyde], in assay [1], the “Activity … NADH” value is reported as 0.33 nmoles · gfwt^−1 · min^−1 and the “Activity … NADPH” value is given as 0.18 nmoles · gfwt^−1 · min^−1.
Turning to `O=C(O)/C=C/c1ccc(O)cc1` [CA, p-coumaric acid], in the assay with Vanilla embryo culture (precursor fed at 1 mM), the “CA (p-coumaric acid) content of culture” value amounted to 220 mg/100 g dry wt, the “HBA (p-hydroxybenzyl alcohol) content of culture” value was determined as 13000 mg/100 g dry wt, the “PRO-ALD” value is recorded as 10 mg/100 g dry wt and the “VN (vanillin) content of culture” value was determined as 0.01 mg/100 g dry wt. In addition, the “VN ALC” value with Vanilla embryo culture (precursor fed at 1 mM) is 10 mg/100 g dry wt. In assay [2], the “specificity of the tested enzyme towards substrate” value is “very high specificity” and the “Result: conversion of the compound as substrate to the expected chain-shortened product” value (from here on “Result: conversion of the compound”) was “positive”.
`O=C(O)/C=C/c1ccc(O)c(O)c1` [CAF, caffeic acid]: in the assay with Vanilla embryo culture (precursor fed at 2 mM), the “CA (p-coumaric acid) content of culture” value came to 189 mg/100 g dry wt, the “HBA (p-hydroxybenzyl alcohol) content of culture” value came out at 11350 mg/100 g dry wt, the “PRO-ALD” value was determined as 21 mg/100 g dry wt and the “VN (vanillin) content of culture” value is 0.5 mg/100 g dry wt. Further, in the assay on Vanilla embryo culture (precursor fed at 2 mM), the “VN ALC” value stood at 32 mg/100 g dry wt. Besides, the “Result: conversion of the compound” value in assay [2] is recorded as “negative”.
For `O=CC=Cc1ccccc1` [Cinnamylaldehyde], in assay [1], the “Activity … NADH” value turned out to be 0.00 nmoles · gfwt^−1 · min^−1.
Consider `COc1cc(/C=C/C(=O)O)ccc1O` [FA, ferulic acid], for which, in the assay with Vanilla embryo culture (precursor fed at 25 mM), the “CA (p-coumaric acid) content of culture” value stood at 136 mg/100 g dry wt, the “HBA (p-hydroxybenzyl alcohol) content of culture” value came out at 11007 mg/100 g dry wt, the “PRO-ALD” value is 4.8 mg/100 g dry wt and the “VN (vanillin) content of culture” value turned out to be 11.8 mg/100 g dry wt. In addition, the “VN ALC” value with Vanilla embryo culture (precursor fed at 25 mM) turned out to be 23.8 mg/100 g dry wt. The “Result: conversion of the compound” value in assay [2] is on record as “negative”.
Take `OCc1ccc(O)cc1` [HBA, p-hydroxybenzyl alcohol]: in the assay on Vanilla embryo culture (precursor fed at 1 mM), the “CA (p-coumaric acid) content of culture” value is 158 mg/100 g dry wt, the “HBA (p-hydroxybenzyl alcohol) content of culture” value is 13100 mg/100 g dry wt, the “PRO-ALD” value is given as 4.6 mg/100 g dry wt and the “VN (vanillin) content of culture” value amounted to 0.001 mg/100 g dry wt. Besides, the “VN ALC” value in the assay on Vanilla embryo culture (precursor fed at 1 mM) stood at 9.6 mg/100 g dry wt. In addition, the “fate of HBA in tissue homogenates” value with Vanilla embryo culture (tissue homogenates) is “rapidly metabolized to dihydroxybenzyl aldehyde”.
Regarding `O=C(O)CC(O)C(=O)O` (centres unmarked) [Malic Acid, malic acid], in assay [3] (setting [4]), the “BA content of culture” value is recorded as 0.02% of Dry Weight, the “HBA content of culture” value is 3.60% of Dry Weight, the “HMBA (vanillyl alcohol) content of culture” value was 0.700% of Dry Weight and the “HY content of culture” value is listed as 0.050% of Dry Weight. In assay [3] (setting [4]), the “PC content of culture” value is on record as 0.20% of Dry Weight, the “PROALD content of culture” value was 0.025% of Dry Weight and the “VN (vanillin) content of culture” value is reported as 0.072% of Dry Weight. Further, the “stimulation of vanillin production relative to standard conditions” value in assay [3] (3% malic acid by weight, 7 days, embryo cultures) is given as “more than tenfold”. Further, the vanillin yield in assay [3] (3% malic acid, embryo cultures, increase from 5) came out at 72 mg/100 g tissue. In addition, the “effect on production/accumulation of vanillin and vanillyl alcohol” value in assay [3] (malic acid 0.1 to 3% as disodium salt, 1 to 15 days) is “induced the production/accumulation of vanillin and vanillyl alcohol”.
Consider `COc1cc(CO)ccc1O` [VN. ALC., vanillyl alcohol], for which, in the assay on Vanilla embryo culture (precursor fed at 2 mM), the “CA (p-coumaric acid) content of culture” value amounted to 206 mg/100 g dry wt, the “HBA (p-hydroxybenzyl alcohol) content of culture” value was 10350 mg/100 g dry wt, the “PRO-ALD” value worked out at 1.1 mg/100 g dry wt and the “VN (vanillin) content of culture” value is listed as 8.5 mg/100 g dry wt. In the assay on Vanilla embryo culture (precursor fed at 2 mM), the “VN ALC” value is 882 mg/100 g dry wt.
Regarding `COc1cc(/C=C/C=O)ccc1O` [coniferyl aldehyde, 4-HO-3-metoxycinnamyl aldehyde], the “Result: conversion of the compound” value in assay [2] was “negative”. The “Activity … NADH” value in assay [1] turned out to be 0.00 nmoles · gfwt^−1 · min^−1.
As for `O=C(O)/C=C/c1ccccc1` [t-cinnamic acid], in assay [2], the “Result: conversion of the compound” value was “negative”.

Source of the values: patent US7226783B1, “Vanillin production” (David Michael & Co., Inc., priority 1997, dated 2007).
